# Experimental data published in ChEMBL document CHEMBL4651402, “Screening of ~5500 FDA-approved drugs and clinical candidates for anti-SARS-CoV-2 activity” (2021).
# System: SARS-CoV-2
# Experiment: microbe, parasite or virus in culture
# Conditions: Severe acute respiratory syndrome coronavirus 2, Vero C1008, 48 h
Compound,IC50 [µM],IC50 (read-out: pIC50 (converted)) [µM]
COc1cc(Br)c(CC2c3cc(OC)c(OC)cc3CCN2C)cc1OC (racemic),> 20,> 20
Cc1cc(OCCCS(C)(=O)=O)cc(C)c1-c1cccc(COc2ccc3c(c2)OC[C@@H]3CC(=O)O)c1,> 20,> 20
OC(Cn1cncn1)(Cn1cncn1)c1ccc(F)cc1F [FLUCONAZOLE],> 20,> 20
Cc1sc2c(c1C)C(c1ccc(Cl)cc1)=N[C@@H](CC(=O)Nc1ccc(O)cc1)c1nnc(C)n1-2 [BIRABRESIB],> 20,> 20
CC1O[C@@H](OC2CC[C@@]3(C)C(CCC4C3CC(O)[C@]3(C)[C@@H](C5=CC(=O)OC5)CCC43O)C2)CC(O)[C@@H]1O[C@H]1CC(O)[C@H](O[C@H]2CC(O)[C@H](O[C@@H]3OC(CO)[C@@H](O)C(O)C3O)C(C)O2)C(C)O1 (stereo not given in full),> 20,> 20
O=NN(CCCl)C(=O)NC1CCCCC1 [LOMUSTINE],> 20,> 20
COc1cc(/C=C2\CCC/C(=C\c3ccc(O)c(OC)c3)C2=O)ccc1O [CYCLOVALONE],> 20,> 20
N=C(N)NS(=O)(=O)c1ccc(N)cc1 [SULFAGUANIDINE],> 20,> 20
CS(=O)(=O)OCCCCOS(C)(=O)=O [BUSULFAN],> 20,> 20
CNCCc1cnc[nH]1,> 20,> 20
CN1CCc2cc(Cl)c(O)cc2[C@H]2c3ccccc3CC[C@@H]21 [ECOPIPAM],> 20,> 20
COc1ccc(COc2cc3oc(=O)c4cc(C(C)O)ccc4c3cc2OC)cc1 (stereo not given) [PALOMID-529],> 20,> 20
CC(C1=C(CCN(C)C)Cc2ccccc21)c1ccccn1 (stereo not given),> 20,> 20
C/C=C/C[C@@H](C)[C@@H](O)[C@H]1C(=O)N[C@@H](CC)C(=O)N(C)CC(=O)N(C)[C@@H]([C@@H](C)CC)C(=O)N[C@@H](C(C)C)C(=O)N(C)[C@@H](CC(C)C)C(=O)N[C@@H](C)C(=O)N[C@H](C)C(=O)N(C)[C@@H](CC(C)C)C(=O)N(C)[C@@H](CC(C)C)C(=O)N(C)[C@@H](C(C)C)C(=O)N1C [NIM811],> 20,> 20
O=c1[nH]c(=O)c2nc3ccccc3nc2[nH]1 [ALLOXAZINE],> 20,> 20
Cc1cccc(C)c1NC1=NCCCS1 [XYLAZINE],> 20,> 20
C=C1[C@@H](O)C2/C=C\C[C@H](C)C(=O)[C@](C)(O)/C=C/[C@@H](OC(C)=O)[C@]23C(=O)N[C@H](Cc2ccccc2)[C@@H]3[C@@H]1C (stereo not given in full),> 20,> 20
C[C@H]1O[C@H](O[C@H]2[C@H](O)[C@@H](O)[C@@H](O[C@@H]([C@H](O)[C@@H](O)C=O)[C@H](O)CO)O[C@@H]2CO)[C@H](O)[C@@H](O)[C@@H]1N[C@H]1C=C(CO)[C@@H](O)[C@H](O)[C@H]1O.C[C@H]1O[C@H](O[C@H]2[C@H](O)[C@@H](O)[C@@H](O[C@H]3[C@H](O)[C@@H](O)[C@H](O)O[C@@H]3CO)O[C@@H]2CO)[C@H](O)[C@@H](O)[C@@H]1N[C@H]1C=C(CO)[C@@H](O)[C@H](O)[C@H]1O,> 20,> 20
COc1c(N2CCC/C(=C(/F)CN)C2)c(F)cc2c(=O)c(C(=O)O)cn(C3CC3)c12,> 20,> 20
COc1cc(OC)c(/C=C/S(=O)(=O)Cc2ccc(OC)c(NCC(=O)O)c2)c(OC)c1 [RIGOSERTIB],> 20,> 20
CC(C)(Oc1ccc(Cl)cc1)C(=O)O [CLOFIBRIC ACID],> 20,> 20
COc1cc2nc(N3CCN(C(=O)C4CCCO4)CC3)nc(N)c2cc1OC (stereo not given) [TERAZOSIN],> 20,> 20
N#CCNC(=O)c1ccc(-c2ccnc(Nc3ccc(N4CCOCC4)cc3)n2)cc1 [MOMELOTINIB],> 20,> 20
NC1(C(=O)O)CC1 [1-Aminocyclopropane carboxylic acid],> 20,> 20

Compound,IC50 [µM],IC50 (read-out: pIC50 (converted)) [µM]
CC(C)NCC1CCc2cc(CO)c([N+](=O)[O-])cc2N1 (stereo not given) [OXAMNIQUINE],> 20,> 20
O=C(O)CC[N+](=O)[O-],> 20,> 20
CC1=C(C(=O)Nc2ccccc2)SCCO1 [CARBOXIN],> 20,> 20
CC(=O)OCC(CCn1cnc2cnc(N)nc21)COC(C)=O [FAMCICLOVIR],> 20,> 20
CC(C)C[C@H]1C(=O)N2CCC[C@H]2[C@]2(O)O[C@](NC(=O)[C@@H]3C=C4c5cccc6[nH]c(Br)c(c56)CC4N(C)C3)(C(C)C)C(=O)N12 (stereo not given in full),> 20,> 20
CC(=O)N[C@H](Cc1c[nH]c2ccccc12)C(=O)O,> 20,> 20
CC1(C)SC2C(/N=C/N3CCCCCC3)C(=O)N2C1C(=O)O (stereo not given),> 20,> 20
COC(=O)C1=C(C)NC(C)=C(C(=O)OCCN2CCN(C(c3ccccc3)c3ccccc3)CC2)C1c1cccc([N+](=O)[O-])c1 (stereo not given) [MANIDIPINE 6300],> 20,> 20
c1ccc2sc(SSc3nc4ccccc4s3)nc2c1 [BENZOTHIAZYL DISULFIDE],> 20,> 20
COc1nc(N)nc2c1ncn2[C@@H]1O[C@H](CO)[C@@H](O)[C@@H]1O [NELARABINE],> 50.1,> 50.1
O=C1O[C@H]([C@@H](O)CO)C(O)=C1O [ASCORBIC ACID],> 20,> 20
CC1=NC(=O)[C@](CCN(C(C)C)C(C)C)(c2ccccc2)[C@H]2CCCCN12,> 20,> 20
COc1cc(Nc2ncc(F)c(Nc3ccc4c(n3)N(COP(=O)(O)O)C(=O)C(C)(C)O4)n2)cc(OC)c1OC [FOSTAMATINIB],> 20,> 20
COc1ccc(-c2nc(C(F)(F)F)[nH]c2-c2ccc(OC)cc2)cc1 [FLUMIZOLE],> 20,> 20
C[C@H](O)C(=O)O [L-LACTIC ACID],> 20,> 20
CC12C=CC(=O)C=C1[C@@H](F)CC1C2C(O)CC2(C)C1CCC2(O)C(=O)CO (stereo not given in full),> 20,> 20
CC1(C)C[C@@H]1C(=O)N/C(=C\CCCCSC[C@H](N)C(=O)O)C(=O)O [CILASTATIN],> 20,> 20
NC(=O)c1csc(C2OC(CO)C(O)C2O)n1 (stereo not given),> 20,> 20
C=C1CCC2C(CC2(C)C)C(=O)CCC1O (stereo not given) [ISOKOBUSONE],> 20,> 20
COc1cc(C(=O)NCc2ccc(OCCN(C)C)cc2)cc(OC)c1OC [TRIMETHOBENZAMIDE],> 20,> 20
O=C(O)CCCCC(CCSCc1ccccc1)SCc1ccccc1 (stereo not given) [CPI 613],> 20,> 20
CCC(CC)[C@H](c1ccc(Nc2nc3ccccc3s2)cc1)n1cncn1,> 20,> 20
CCCC(=O)Nc1ncnc2c1ncn2[C@@H]1O[C@@H]2COP(=O)(O)O[C@H]2[C@H]1OC(=O)CCC [BUCLADESINE],> 20,> 20
O=C(Nc1cccnn1)N1CCC(=Cc2cccc(Oc3ccc(C(F)(F)F)cn3)c2)CC1,> 20,> 20

Compound,IC50 [µM],IC50 (read-out: pIC50 (converted)) [µM]
C=CCC1(CC=C)C(=O)NC(=O)NC1=O [ALLOBARBITAL],> 20,> 20
Cc1c(Cc2ccc3ccccc3n2)c2cc(F)ccc2n1CC(=O)O [TIMAPIPRANT],> 20,> 20
Nc1cc(-c2ccncc2)c[nH]c1=O [INAMRINONE],> 20,> 20
CC(=O)OCC(=O)[C@@]12OC3(CCCC3)O[C@@H]1C[C@H]1[C@@H]3CCC4=CC(=O)C=C[C@]4(C)[C@@]3(F)[C@@H](O)C[C@@]12C [AMCINONIDE],> 20,> 20
CC(C(O)c1ccccc1)N(C)C (racemic),> 20,> 20
O=C(O)c1cc2cc(F)ccc2[nH]1 [5-FLUOROINDOLE-2-CARBOXYLIC ACID],> 20,> 20
COc1ccc2nc3cc(Cl)ccc3c(Nc3cc(CN4CCCC4)c(O)c(CN4CCCC4)c3)c2n1 [PYRONARIDINE],> 20,> 20
CCCCCN(CCCOC)C(=O)C(CCC(=O)O)NC(=O)c1ccc(Cl)c(Cl)c1 (stereo not given) [LOXIGLUMIDE],> 20,> 20
CC(C)(C)C(=O)Oc1ccc2c(c1)O[C@@H](c1ccc(OCCN3CCCCC3)cc1)C1=C2COc2cc(OC(=O)C(C)(C)C)ccc21,> 20,> 20
CC(=O)N(CC(O)CO)c1c(I)c(C(=O)NCC(O)CO)c(I)c(C(=O)NCC(O)CO)c1I (stereo not given) [IOHEXOL],> 20,> 20
CC(N)C(=O)c1ccccc1 (stereo not given) [DEALKYLATED DIETHYLPROPION],> 20,> 20
Cc1ccc2c([nH]c(=O)c3c(=O)cc(C(=O)OCCC(C)C)oc32)c1C,> 20,> 20
COc1cc(O)c(C(=O)c2ccccc2)cc1S(=O)(=O)O [SULISOBENZONE],> 20,> 20
CN1CCC(=C2c3ccccc3Oc3ncccc32)CC1 [AZANATOR],> 20,> 20
CCCc1c2oc(C(=O)O)cc(=O)c2cc2c(=O)cc(C(=O)O)oc12 [PROBICROMIL],> 20,> 20
c1ccc(OCc2ccc(CCCN3CCOCC3)cc2)cc1 [FOMOCAINE],> 20,> 20
CC(C)[C@H]1CC[C@H](C(=O)N[C@H](Cc2ccccc2)C(=O)O)CC1 [NATEGLINIDE],> 20,> 20
C[C@H]1O[C@@H](Oc2c(-c3ccc(O)c(O)c3)oc3cc(O)cc(O)c3c2=O)[C@@H](O)[C@@H](O)[C@@H]1O,> 20,> 20
C1CCC2(C1)C1CN(CC3CC3)CC2CN(CC2CC2)C1,> 20,> 20
CN(C)CCCC1c2ccccc2Nc2ccc(Cl)cc21 (stereo not given) [CLOMACRAN],> 20,> 20
CCN(CC)CCNC(=O)c1ccc(N)c(Cl)c1 [DECLOPRAMIDE],> 20,> 20
O=C1Nc2ccc(Cl)cc2C(c2ccccc2Cl)=NC1O (stereo not given) [LORAZEPAM],> 20,> 20
